Results reported in patent US12545695B2, “Compounds for inhibiting neovascularization factors and use thereof” (UNIST (ULSAN NATIONAL INSTITUTE OF SCIENCE AND TECHNOLOGY), priority 2019, dated 2026).

Columns and labels:
[1] = tested on: TRAP-1; assay: Pull-down assay: client proteins SIRT3 and SDHB on GST-TRAP1 beads; type: binding; conditions: TRAP1-bead form with isolated mitochondria and drug, 4° C., 18 hours (FIG. 14)
Experimental: A pull-down assay was performed to confirm whether SMx competitively binds to SIRT3 and SDHB, which are known as client proteins of TRAP-1. TRAP1 protein in the GST fusion form was purified from bacteria cells and then bound to glutathione beads to make a TRAP1-bead form, and then the TRAP1-bead form was bound to the mitochondria isolated from mammalian cells (Thermo Scientific mitochondria isolation kit) with a drug at 4° C. for 18 hours. The cells were treated with SMx, and gamitrinib and PU-H71, which are previously developed N-terminal domain inhibitors of hsp90s, as the drugs, according to the concentrations shown in the drawing. […] This is strong evidence that SMx has the ability to bind to the middle domain of TRAP-1.

[2] = tested on: HIF-1α; assay: Western blot of HIF-1α in ARPE-19 cells under hypoxia; type: cell-based, Human; conditions: ARPE-19, 1 μM, 1% oxygen, 6 hours (FIG. 26)
Experimental: Human retinal pigmented epithelium ARPE-19 cells were seeded in the number of 3×10^5 on a 60-millimeter plate, and cultured at 37° C. and 5% CO2, and DMEM/F-12 including 10% fetal bovine serum and 1% penicillin & streptomycin was used as the medium for 2 days. Two days later, the cells were treated with DMSO (0.5%), SMx, SB-U005, SB-U009, SB-U011 and SB-U012 at 1 μM and cultured under 1% oxygen conditions in a hypoxia chamber for 6 hours, and then a western blot experiment was performed.
After the cell culture experiment was completed, the cell culture solution was removed, the cells was washed once with cold PBS, and a RIPA solution (50 mM Tris-HCl pH 7.4, 150 mM NaCl, 0.25% Na-deoxycholate, 1% NP-40) was added thereto to harvest cells using a cell scraper. After the cells were sufficiently lysed, a 6× sample buffer was mixed with a cell suspension obtained by low-temperature centrifugation, the resulting mixture was boiled at 95° C. for 5 minutes, and then 12% SDS-PAGE was performed. […]
Thereafter, the membrane was washed twice with TBS-T (Tris-buffered saline+Tween-20), and then reacted with a secondary antibody (diluted at 1:5,000) at room temperature for 1 hour. After the membrane was washed twice with TBS-T, changes in protein expression level were measured by a Chemidoc system (GE, LAS 4000) using a Clarity Western ECL substrate (Bio-Rad).

[3] = tested on: neovascularization factors; assay: Expression of neovascularization factors in Muller cells (western blot / PCR RNA level analysis); type: cell-based; conditions: MIO-M1, 1% O2 (FIG. 9)
Experimental: Muller cells were treated with gamitrinib and SMX at 3 uM and cultured in a 1% O2 environment for 8 hours, and then total RNA was extracted (Qiagen, total RNA extraction kit). cDNA was synthesized from 1 ug of total RNA (NEB, cDNA synthesis kit). After angiogenic factors were synthesized using PCR, the RNA level was analyzed by agarose electrophoresis.
Muller cells (MIO-M1) were cultured at 37° C. and 5% CO2, and DMEM-low glucose (Sigma) including 10% fetal bovine serum and 1% penicillin & streptomycin was used as the medium. A hypoxic chamber was maintained at 37° C., 5% CO2 and 1% O2. Muller cells (MIO-M1) were seeded in the number of 4×10^5 on a 60-millimeter plate and cultured in 3 ml of the medium for 24 hours. The next day, the cells were treated with SMx, a mitochondrial heat shock protein 90 (TRAP1) inhibitor, and gamitrinib and PU-H71, which are previously developed N-terminal domain inhibitors of hsp90s, according to the concentrations shown in the drawing, and cultured in a hypoxic chamber for 24 hours. Whole cell lysates were made from the cultured cells, electrophoresed, transferred to a PVDF membrane, and then treated with a primary antibody at 4° C. for 18 hours. The next day, the whole cell lysates were treated with a secondary antibody for 1 hour and protein expression was analyzed using a western blotting detection reagent.

[4] = tested on: oxygen-induced retinopathy mouse model; assay: Oxygen-induced retinopathy mouse model, eye drop administration, retinal vascular analysis; type: in vivo, C57BL/6J mice; conditions: 1 mM in Liposic, eye drops 3 times a day, P12 to P17; versus control eye (FIG. 18, 19)
Excerpt: An oxygen-induced retinopathy mouse model was induced by rearing young C57BL/6J (Hyochang Science Inc.) mice aged 7 days after birth (P7) in a hyperoxic chamber (Coy Lab. in vivo chamber, 75% O2) for 5 days (P12), and then rearing the mice in a normoxic environment for 5 days (P17).
An oxygen-induced retinopathy mouse model was induced by rearing young C57BL/6J (Hyochang Science Inc.) mice aged 7 days after birth (P7) in a hyperoxic chamber (Coy Lab. in vivo chamber, 75% O2) for 5 days (P12), and then rearing the mice in a normoxic environment for 5 days (P17). SMx was diluted with Liposic (solvent) to 1 mM during P12 to P17 (5 days), which is the period of time when oxygen-induced retinopathy is induced from normal oxygen, and then administered by eye drops 3 times a day. The right eye was administered SMx, and the left eye was administered the control Liposic.
The oxygen-induced retinopathy mouse model was formed, and then perfused with 1×PBS and 4% PFA. After mouse eyes were extracted and fixed in 4% PFA, the retinas were isolated. The isolated retinas were washed with 1×PBS, and then blocked (0.1% BSA, 0.1% Triton X-100 in 1×PBS) at room temperature for 1 hour. The retinas were treated with a CD31 blood-vessel staining antibody (CD31, Cell Signaling, 1:100) overnight at 4° C. […] Blood vessel staining was analyzed under a fluorescence microscope (Zen, Axio Zoom). […]

binding of the client protein (SIRT3, SDHB) to TRAP-1 [1]: significantly reduced
SMILES: COC1=C(OC)C(=O)C(CCCCCCCCCC[P+](c2ccccc2)(c2ccccc2)c2ccccc2)=C(C)C1=O [SMx]
suppression of HIF-1α [2]: effectively suppressed | expression of well-known neovascularization factors [3]: suppressed | avascular area [4]: significantly reduced | neovascular area [4]: significantly reduced
